According to patent US20130071487A1, “XENON-BASED INHALABLE DRUG FOR PREVENTING ADDICTION RELAPSES IN HUMANS” (L'Air Liquide, Societe Anonyme pour l'Etude et …, priority 2010, published 2013):

How the values were obtained:
[1] = system: alcohol consumption following alcohol deprivation; conditions: alcohol-dependent rats; cited from earlier work
[2] = system: stimuli-induced alcoholic relapse; experiment: Stimuli-induced alcoholic relapse model; type: in vivo, male Wistar rats; conditions: rat, 1 hour gas exposure 24 hours and 3 hours before the relapse test, FIG. 5
Description: Another animal model well-established in the literature was used to evaluate the anti-relapse effects of xenon, namely the stimuli-induced alcoholic relapse model.
This model is based on the fact that taking drugs or alcohol capable of leading to dependence is associated with a number of environmental stimuli (auditory, olfactory, visual) which are themselves likely to lead to a relapse.
Briefly, the experiments were carried out in conditioning chambers equipped with 2 levers allowing the distribution of water or of alcohol.
24 male Wistar rats were used. The animals are trained to self-administer ethanol at 10% by volume during the course of daily sessions lasting 30 minutes.
During the conditioning phase, the animals are trained to distinguish between the availability of alcohol and of water. Stimulus 1 (orange extract) is the signal for availability of alcohol and each pressing of lever No.1 results in conditioned stimulus No.1 (flashing light) and the immediate distribution of alcohol (30 μl). Furthermore, lever No.2 remains unused during the “alcohol sessions” throughout the experiment.
Stimulus n° 2 (anise extract) will give the signal for availability of water during the “water sessions” and each pressing of lever No.2 results in the presentation of conditioned stimulus No.2 (constant light) and the distribution of water (30 μl). […]

[3] = system: alcohol consumption after deprivation; experiment: Alcohol deprivation effect model (EAD); type: in vivo, male Wistar rats; conditions: rat; for effect on alcohol consumption after deprivation (consumption curve versus control) / difference in area under curve versus control group N2/O2: EAD model; for effect on alcohol consumption after deprivation (consumption curve versus control): 50%/50% gas/O2, FIG. 2 and FIG. 3; for difference in area under curve versus control group N2/O2: 50%/50% gas/O2, control 16.34±0.9 g/kg*day; for area under curve of total ethanol consumption: two 1 hour inhalation exposures to 50%/50% gas/O2 mixture, consumption measured daily for 6 post-abstinence days, control N2/O2 16.34±0.9
Excerpt: The alcohol deprivation model (EAD) comprises habituating the animals to consumption of alcohol for a period of 8 weeks, followed by a period of deprivation of 2 weeks, during which alcohol was withdrawn. This cycle is repeated 8 times. After a period of deprivation, access to alcohol causes a significant but temporary increase in alcohol consumption compared to the reference level. This model is ideal for studying behavior during relapse. It was validated with nacamprosate and naltrexone.
The following experimental protocol was followed.
16 male Wistar rats have free and continuous access to 2 feeding bottles, one containing tap water and the other containing 5%, 10% and 20% ethanol (vol./ vol.) in their cages.
The first two-week deprivation period is introduced after 8 weeks of continuously available alcohol, as illustrated in FIG. 1.
After this deprivation period, the rats will have access to alcohol and again to at least 2 more randomly introduced periods of deprivation.
All the animals are divided into 2 groups (8 rats/group) so that for the mean baseline (week 23), the total alcohol consumption will be essentially the same in each group.
On the last day of week 25 at about 9 am, […] animals are exposed to the Xe/O2 (50%/50%) gaseous mixture for 1 hour.
The control group is exposed to N2/O2 (50%/50%). The following day at 9 am all the animals are exposed for a second time to these same gaseous mixtures for 1 hour.
The exposures to the gaseous mixture are represented by two arrows in FIG. 2.
Following this last exposure, the bottles of alcohol will again be offered (post-abstinence days).
Following exposures to the different gases, the total consumption of ethanol (g/kg of body weight) is measured daily at about 10 am, for 6 days.

SMILES | effect on increase in alcohol consumption following alcohol deprivation [1] | number of presses on the lever delivering the alcohol following exposure to stimulus-1, compared to control N2/O2 50%/50% [2] | effect on alcohol consumption after deprivation (consumption curve versus control) [3] | difference in area under curve versus control group N2/O2 [3] | area under curve of total ethanol consumption [3] [g/kg*day]
CC(=O)NCCCS(=O)(=O)O [acamprosate] | a reduction was noted in detrimental effects |  |  |  | 
[Xe] [xenon] |  | significant reduction | reduction in alcohol consumption | difference of two units | 14.28±1.3
[N-]=[N+]=O [N2O, nitrous oxide] |  | no significant effect | reduces this alcohol consumption to a much lesser extent | 1 | 15.34±1.3
